The subject of the first experiment is H3K36me3 in A549 cells. As to the kind of experiment: In-Cell Western (ICW) assay of SETD2 inhibitors (A549 assay). The format is cell-based, human. The following applies: A549 cells; read-out: SETD2 A549. The protocol: In-Cell Western (ICW) Assay of SETD2 Inhibitors (A549 Assay)
Representative Compounds of the Disclosure were tested in the A549 assay according the following protocol.
1. Reagents and Consumables:
Prepare plates with compounds. Seed A549 cells to the plates with compounds, 4,000 cells/well, 50 μl/well. Put the plates at room temperature on a non-vibrating surface for 20 minutes before placing in the incubator. Incubate the plate at 37° C. incubator with CO2 for 3 days. Remove plate from incubator and bring to room temperature. Blot media out of the plate and add 50 μL of ice cold 100% methanol. Incubate 30 minutes at room temperature. Remove methanol by aspiration. Wash 3× with PBST. Add 50 μL of Blocking Buffer+0.1% Tween 20. Incubate 1 hour. Remove Blocking Buffer, wash 3× with PBST. Add 20 μL of H3K36me3 (1:1000 dilution). […] Incubate overnight at 4° C. Wash plate 5× with PBS-T. Add 20 μL of DRAQ5 (1:1000) and IRDye 800CW Goat anti-Rabbit IgG (1:500). Incubate for 1 hour in the dark. Wash plate 5× with PBS-T. Wash plate 3× with water. Dry by blotting on paper towel, then centrifuge plate upside down on a thin layer of paper towels for 1 minute at 1000 rpm to remove excess reagent. Leave plate uncovered for ˜10 minutes out of direct light before reading. Read on Licor instrument.
4. Licor Instrument Settings:
Preset: Plate; Resolution: 84 μm; Quality: low; Focus offset: 4.0; 700 channel intensity: 2; and 800 channel intensity: 3.
As for `Cc1ccc(F)c2cc(C(=O)NC3CCCC(N4CCOCC4)C3)[nH]c12` (stereo not shown) [compound 374], the IC50 is above 2000 nM.
Same read-out and setting: the value for `Cc1ccc(F)c2cc(C(=O)NC3CCCC(N4CCOCC4)C3)[nH]c12` (stereo not shown) [compound 381] was above 2000 nM; that for `Cc1ccc(F)c2cc(C(=O)NC3CCCC(N4CCN(C)C(=O)C4)C3)[nH]c12` (stereo not shown) [compound 382] was above 2000 nM.
Same read-out and setting: to `Cc1cccc2cc(C(=O)NCc3ccccc3N3CCCC3)[nH]c12` [compound 528] belongs 24600 nM.
The same measure, in the same setting: to `Cc1cccnc1C(NC(=O)c1cc2nccc(C)c2[nH]1)C1CC1` (stereo not shown) [compound 599] belongs above 25000 nM; to `Cc1cccnc1[C@@H](NC(=O)c1cc2cccc(C)c2[nH]1)C1CC1` [compound 613], above 25000 nM; to `CC(=O)N(C)[C@@H]1CCN([C@@H]2CCC[C@@H](NC(=O)c3cc4c(F)ccc(C)c4[nH]3)C2)C1` [compound 849], above 2000 nM.
With `Cc1ccc(F)c2cc(C(=O)N[C@@H]3CCC[C@@H](N4CCN(S(C)(=O)=O)CC4)C3)[nH]c12` [compound 851], the IC50 is above 2000 nM.
Take `Cc1ccc(F)c2cc(C(=O)NC3CCCC(N4CCN5C(=O)CCC5C4)C3)[nH]c12` (stereo not shown) [compound 863]: the IC50 turned out to be 20 nM.
The same measure, in the same setting: to `Cc1ccc(F)c2cc(C(=O)N[C@@H]3CCC[C@@H](N4CCN5C(=O)CCC5C4)C3)[nH]c12` (stereo partly shown) [compound 864] belongs 1200 nM.
Consider `Cc1ccc(F)c2cc(C(=O)NC3CCCC(N4CCN5C(=O)CCC5C4)C3)[nH]c12` (stereo not shown) [compound 920], for which the IC50 was found to be 100 nM.
On the same count and under the same terms, to `Cc1ccc(F)c2cc(C(=O)N[C@@H]3CCC[C@@H](N4CCN5C(=O)CC[C@@H]5C4)C3)[nH]c12` [compound 921] belongs 1000 nM; to `Cc1ccc(F)c2cc(C(=O)NC3CCCC(N4CCN5C(=O)CCC5C4)C3)[nH]c12` (stereo not shown) [compound 922], 10 nM; to `Cc1ccc(F)c2cc(C(=O)NC3CCCC(c4nnc(CN(C)C)o4)C3)[nH]c12` (stereo not shown) [compound 954], above 2000 nM.
On the same count and under the same terms, to `Cc1ccc(F)c2cc(C(=O)Nc3ncc(C4CCN(C)CC4)n3C)[nH]c12` [compound 1159] belongs above 25000 nM.
Still for that read-out and setting: the value for `CC(=O)N1CCC2CN(C3CCCC(NC(=O)c4cc5c(F)ccc(C)c5[nH]4)C3)CC21` (stereo not shown) [compound 1181] was above 2000 nM.

The experiment is the same for the next values; noted with them: Homo sapiens, A549, read-out: SETD2 A549.
For `Cc1ccc(F)c2cc(C(=O)N[C@@H]3CCC[C@H](N4CCN(C)C(=O)C4)C3)[nH]c12` [compound 169], the IC50 was determined as 300 nM.
Still for that read-out and setting: to `CC(=O)N(C)C1CCN([C@@H]2CCC[C@@H](NC(=O)c3cc4c(F)ccc(C)c4[nH]3)C2)C1` (stereo partly shown) [compound 385] belongs above 2000 nM; to `Cc1cccnc1C(NC(=O)c1cc2c(F)ccc(C)c2[nH]1)C1CC1` (stereo not shown) [compound 462], 6300 nM.
With `Cc1cccnc1[C@H](NC(=O)c1cc2cccc(C)c2[nH]1)C1CC1` [compound 463], the IC50 is 6400 nM.
Consider `Cc1cccnc1C(NC(=O)c1cc2cccc(C)c2[nH]1)C1CC1` (stereo not shown) [compound 475], for which the IC50 was determined as 8900 nM.
Still for that read-out and setting: the value for `Cc1cccc2cc(C(=O)Nc3ccccc3)[nH]c12` [compound 479] was 9500 nM; that for `Cc1cccnc1C(NC(=O)c1cc2cc(F)cc(C)c2[nH]1)C1CC1` (stereo not shown) [compound 497] was 13800 nM.
As for `Cc1cccc2cc(C(=O)N[C@H]3CC[C@@H](NC(=O)CCN)CC3)[nH]c12` [compound 592], the IC50 is above 25000 nM.
On the same count and under the same terms, to `CC(=O)N(C)[C@H]1CCN([C@H]2CCC[C@@H](NC(=O)c3cc4c(F)ccc(C)c4[nH]3)C2)C1` [compound 841] belongs 100 nM; to `CC(=O)N(C)[C@H]1CCN([C@@H]2CCC[C@@H](NC(=O)c3cc4c(F)ccc(C)c4[nH]3)C2)C1` [compound 842], above 2000 nM.
On to `Cc1ccc(F)c2cc(C(=O)N[C@@H]3CCC[C@@H](c4ccncc4)C3)[nH]c12` [compound 912], for which the IC50 was above 2000 nM.
Regarding `Cc1ccc(F)c2cc(C(=O)N[C@@H]3CCC[C@H](c4ccncc4)C3)[nH]c12` [compound 913], the IC50 was above 2000 nM.
On the same count and under the same terms, the value for `Cc1ccc(F)c2cc(C(=O)N[C@H]3CCC[C@@H](c4ccncc4)C3)[nH]c12` [compound 914] was 300 nM.
The same measure, in the same setting: to `Cc1ccc(F)c2cc(C(=O)N[C@H]3CCC[C@H](c4ccncc4)C3)[nH]c12` [compound 915] belongs above 2000 nM.

Still in this experiment, the particulars now being: Homo sapiens; A549 cells; read-out: SETD2 A549.
Turning to `CCc1ccc(C)c2[nH]c(C(=O)NC(CCC(=O)N3CCOCC3)c3ncccc3C)cc12` (stereo not shown) [compound 485], the IC50 was determined as 10800 nM.
With `Cc1nccnc1C(NC(=O)c1cc2cccc(C)c2[nH]1)C1CC1` (stereo not shown) [compound 518], the IC50 is 18900 nM.

Another experiment addresses T1, SETD2(1434-1711) (Homo sapiens, UniProt Q9BYW2).
T1 construct: SETD2 (1434-1711) Assay; catalogue N/A
T1 sequence (Q9BYW2 1434-1711): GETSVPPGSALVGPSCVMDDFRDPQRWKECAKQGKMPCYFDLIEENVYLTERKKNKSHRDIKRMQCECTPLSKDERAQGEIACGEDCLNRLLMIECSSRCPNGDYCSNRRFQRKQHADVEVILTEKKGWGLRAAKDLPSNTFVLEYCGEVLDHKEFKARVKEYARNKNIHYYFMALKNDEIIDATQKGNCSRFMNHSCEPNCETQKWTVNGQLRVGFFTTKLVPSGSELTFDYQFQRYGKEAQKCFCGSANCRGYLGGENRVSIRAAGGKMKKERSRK
Briefly: SETD2 (1434-1711) assay. The following applies: read-out: SETD2 (1434-1711). The format is biochemical.
On to `Cc1cccc2cc(C(=O)NCC(CN(C)C)c3ccccc3)[nH]c12` (stereo not shown) [compound 815], for which the IC50 was above 200000 nM.
Turning to `Cc1cccc2cc(C(=O)NC3CCC(c4ccccc4)NC(=O)C3)[nH]c12` (stereo not shown) [compound 816], the IC50 was above 200000 nM.
On to `Cc1cccc2cc(C(=O)NC(c3ncccc3Cc3ccccc3)C3CC3)[nH]c12` (stereo not shown) [compound 817], for which the IC50 is above 200000 nM.
The same measure, in the same setting: the value for `Cc1cccc2cc(C(=O)NCCc3ccccc3-c3ccccc3)[nH]c12` [compound 818] was above 200000 nM; that for `Cc1cccc2cc(C(=O)N3CCC4(CCc5ccccc54)C3)[nH]c12` (stereo not shown) [compound 820] was above 200000 nM.
Consider `Cc1cccnc1C(NC(=O)c1cc2cccc(CC3CCC3)c2[nH]1)C1CC1` (stereo not shown) [compound 821], for which the IC50 was above 200000 nM.
For the compound `Cc1ccc(F)c2cc(C(=O)N[C@@H]3CCC[C@@H](N4CCCNC(=O)C4)C3)[nH]c12` [compound 822], the IC50 was 8300 nM.
Same read-out and setting: to `CCOC(=O)N1CCN([C@@H]2CCC[C@@H](NC(=O)c3cc4c(F)ccc(C)c4[nH]3)C2)CC1` [compound 825] belongs 1200 nM; to `Cc1ccc(F)c2cc(C(=O)N[C@@H]3CCC[C@@H](N4CCN(CC(F)(F)F)CC4)C3)[nH]c12` [compound 827], 7600 nM; to `Cc1ccc(F)c2cc(C(=O)N[C@@H]3CCC[C@@H](N4CCN(C(=O)N5CCOCC5)CC4)C3)[nH]c12` [compound 829], 1500 nM.
Still for that read-out and setting: the value for `Cc1ccc(F)c2cc(C(=O)N[C@@H]3CCC[C@H](N4CCN(C(=O)C5CC5)CC4)C3)[nH]c12` [compound 830] was 40 nM.
Still for that read-out and setting: the value for `Cc1ccc(F)c2cc(C(=O)N[C@@H]3CCC[C@@H](N4CCN(C(=O)C5CC5)CC4)C3)[nH]c12` [compound 831] was 2300 nM; that for `Cc1ccc(F)c2cc(C(=O)N[C@@H]3CCCC(N4CCC(=O)N(C)CC4)C3)[nH]c12` (stereo partly shown) [compound 832] was 600 nM; that for `CC(=O)NC1CCN([C@@H]2CCC[C@@H](NC(=O)c3cc4c(F)ccc(C)c4[nH]3)C2)C1` (stereo partly shown) [compound 834] was 5000 nM.
As for `CCN1CCN(C2CCCC(NC(=O)c3cc4c(F)ccc(C)c4[nH]3)C2)CC1=O` (stereo not shown) [compound 835], the IC50 was 100 nM.
Same read-out and setting: the value for `CCN1CCN([C@@H]2CCC[C@@H](NC(=O)c3cc4c(F)ccc(C)c4[nH]3)C2)CC1=O` [compound 836] was 4000 nM.
Take `Cc1ccc(F)c2cc(C(=O)N[C@@H]3CCC[C@@H](N4CCn5ccnc5C4)C3)[nH]c12` [compound 853]: the IC50 amounted to 9700 nM.
Same read-out and setting: the value for `Cc1ccc(F)c2cc(C(=O)NC3CCCC(N4CCn5c(n[nH]c5=O)C4)C3)[nH]c12` (stereo not shown) [compound 1106] was 3000 nM; that for `Cc1cccc2cc(C(=O)NCc3ccccc3Cl)[nH]c12` [compound 1153] was above 200000 nM.
On the same count and under the same terms, to `Cc1cccc2cc(C(=O)NC(C)c3ccc(-n4cncn4)cc3)[nH]c12` (stereo not shown) [compound 1155] belongs 17200 nM.
